Results published in the Kinase Knowledgebase extract (Sharma et al. 2016).

molecular target: PIK3CG (human) (UniProt P48736); test: Inhibition of PIK3CG Kinase Activity
Sequence (P48736 whole entry, looked up): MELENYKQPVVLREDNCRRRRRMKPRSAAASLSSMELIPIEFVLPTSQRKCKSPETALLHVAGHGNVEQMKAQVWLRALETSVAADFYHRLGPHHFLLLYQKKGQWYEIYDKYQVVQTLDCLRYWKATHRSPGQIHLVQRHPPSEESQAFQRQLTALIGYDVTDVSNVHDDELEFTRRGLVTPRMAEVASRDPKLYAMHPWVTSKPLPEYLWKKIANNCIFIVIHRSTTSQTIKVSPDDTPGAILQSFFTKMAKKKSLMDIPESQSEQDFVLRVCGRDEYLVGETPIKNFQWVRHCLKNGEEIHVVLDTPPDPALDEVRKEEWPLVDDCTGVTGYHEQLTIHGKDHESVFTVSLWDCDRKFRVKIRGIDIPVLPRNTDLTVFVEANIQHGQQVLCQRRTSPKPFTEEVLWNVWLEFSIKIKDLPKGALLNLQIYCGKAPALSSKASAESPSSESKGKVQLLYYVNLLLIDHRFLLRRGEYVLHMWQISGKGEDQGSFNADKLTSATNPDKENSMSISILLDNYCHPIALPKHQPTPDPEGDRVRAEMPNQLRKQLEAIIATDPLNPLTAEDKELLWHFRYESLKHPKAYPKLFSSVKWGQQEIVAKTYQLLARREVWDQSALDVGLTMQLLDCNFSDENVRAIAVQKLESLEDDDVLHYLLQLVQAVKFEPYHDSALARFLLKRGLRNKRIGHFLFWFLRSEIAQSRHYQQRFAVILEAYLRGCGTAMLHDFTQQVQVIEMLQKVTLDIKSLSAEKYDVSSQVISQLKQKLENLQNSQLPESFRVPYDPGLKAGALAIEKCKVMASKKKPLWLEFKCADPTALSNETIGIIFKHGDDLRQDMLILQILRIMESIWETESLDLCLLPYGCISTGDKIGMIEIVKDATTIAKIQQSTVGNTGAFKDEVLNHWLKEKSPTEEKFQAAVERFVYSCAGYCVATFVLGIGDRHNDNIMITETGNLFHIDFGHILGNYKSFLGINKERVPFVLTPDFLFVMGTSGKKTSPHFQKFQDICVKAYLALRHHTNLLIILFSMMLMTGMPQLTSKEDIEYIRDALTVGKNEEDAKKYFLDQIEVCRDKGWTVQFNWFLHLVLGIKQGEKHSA

| IC50 [nM] | SMILES |
| --- | --- |
| < 800 | CC(C)(C)CNC(=O)Nc1nc2c(s1)-c1c(cnn1-c1ccccc1Cl)C2 |
| < 800 | Nc1cc(CCNC(=O)Nc2nc3c(s2)-c2c(cnn2-c2ccccc2C(F)(F)F)C3)nn1C1CCN(Cc2ccccc2)CC1 |
| < 800 | CCCCNC(=O)Nc1nc2c(s1)-c1c(cnn1-c1ccccc1Cl)C2 |
| < 800 | CC(C)(C)OC(=O)N1CCC[C@@H]1CNC(=O)Nc1nc2c(s1)-c1c(cnn1-c1ccccc1C(F)(F)F)C2 |
| < 800 | CCn1cnc(CCNC(=O)Nc2nc3c(s2)-c2c(cnn2-c2cc(Cl)ccc2Cl)C3)c1 |
| < 800 | O=C(NCc1ccccc1N1CCCCC1)Nc1nc2c(s1)-c1c(cnn1-c1ccccc1Cl)C2 |
| < 800 | CCCCNC(=O)Nc1nc2c(s1)-c1c(cnn1-c1cccc(F)c1C(F)(F)F)C2 |
| < 800 | CCc1csc(CCNC(=O)Nc2nc3c(s2)-c2c(cnn2-c2ccccc2C(F)(F)F)C3)n1 |
| < 800 | CC(C)(C)n1nc(CNC(=O)Nc2nc3c(s2)-c2c(cnn2-c2ccccc2C(F)(F)F)C3)cc1N |
| < 800 | CC(NC(=O)Nc1nc2c(s1)-c1c(cnn1-c1ccccc1Cl)C2)c1cccc(NC(=O)OC(C)(C)C)c1 (stereo not given) |
| < 800 | NC(=O)c1cccc(CNC(=O)Nc2nc3c(s2)-c2c(cnn2-c2ccccc2C(F)(F)F)C3)c1 |
| < 800 | CCc1nnc(CCNC(=O)Nc2nc3c(s2)-c2c(cnn2-c2ccccc2C(F)(F)F)C3)o1 |
| < 800 | Cc1cc(-c2ccco2)n(CCNC(=O)Nc2nc3c(s2)-c2c(cnn2-c2ccccc2C(F)(F)F)C3)n1 |
| < 800 | Cc1cc(C2CCCCC2)n(CCNC(=O)Nc2nc3c(s2)-c2c(cnn2-c2ccccc2C(F)(F)F)C3)n1 |
| < 800 | O=C(NCCN1CCOCC1)Nc1nc2c(s1)-c1c(cnn1-c1ccccc1Br)C2 |
| < 800 | CN(C)C(=O)CNC(=O)Nc1nc2c(s1)-c1c(cnn1-c1cc(Cl)ccc1Cl)C2 |
| < 800 | O=C(Nc1nc2c(s1)-c1c(cnn1-c1ccccc1Cl)C2)Nc1ccccc1CN1CCNC1=O |
| < 800 | CCCn1cnc(CCNC(=O)Nc2nc3c(s2)-c2c(cnn2-c2ccccc2Cl)C3)c1 |
| < 800 | CCn1nc(CCNC(=O)Nc2nc3c(s2)-c2c(cnn2-c2ccccc2C(F)(F)F)C3)cc1N |
| < 800 | CC(C)(C)OC(=O)CC1(O)CCN(C(=O)Nc2nc3c(s2)-c2c(cnn2-c2ccccc2Cl)C3)CC1 |
| < 800 | Cn1ccc(CNC(=O)Nc2nc3c(s2)-c2c(cnn2-c2ccccc2C(F)(F)F)C3)n1 |
| < 800 | CC(C)Cn1cnc(CCNC(=O)Nc2nc3c(s2)-c2c(cnn2-c2ccccc2C(F)(F)F)C3)c1 |

| IC50 [nM] | SMILES |
| --- | --- |
| < 800 | CN(Cc1cnn(C)c1)C(=O)Nc1nc2c(s1)-c1c(cnn1-c1ccccc1C(F)(F)F)C2 |
| < 800 | CCCn1nc(CCNC(=O)Nc2nc3c(s2)-c2c(cnn2-c2ccccc2C(F)(F)F)C3)cc1N |
| < 800 | CCN1CCC[C@H]1CNC(=O)Nc1nc2c(s1)-c1c(cnn1-c1ccccc1Cl)C2 |
| < 800 | CN(C)C(=O)CNC(=O)Nc1nc2c(s1)-c1c(cnn1-c1ccccc1Cl)C2 |
| < 800 | CCCNC(=O)Nc1nc2c(s1)-c1c(cnn1-c1ccccc1Br)C2 |
| < 800 | CCn1cnc(CCNC(=O)Nc2nc3c(s2)-c2c(cnn2-c2ccccc2Br)C3)c1 |
| < 800 | CCn1cnc(CCNC(=O)Nc2nc3c(s2)-c2c(cnn2-c2ccccc2Cl)C3)c1 |
| < 800 | CNC(=O)Nc1nc2c(s1)-c1c(cnn1-c1ccccc1Br)C2 |
| < 800 | NC(=O)Nc1nc2c(s1)-c1c(cnn1-c1cccc(F)c1C(F)(F)F)C2 |
| < 800 | CC(C)(C)OC(=O)N1CCC(CNC(=O)Nc2nc3c(s2)-c2c(cnn2-c2ccccc2Cl)C3)CC1 |
| < 800 | CC(C)c1cnc(CCNC(=O)Nc2nc3c(s2)-c2c(cnn2-c2ccccc2Cl)C3)o1 |
| < 800 | O=C(NCCc1nc(C2CC2)no1)Nc1nc2c(s1)-c1c(cnn1-c1ccccc1Cl)C2 |
| < 800 | Cn1nc(CCNC(=O)Nc2nc3c(s2)-c2c(cnn2-c2ccccc2C(F)(F)F)C3)cc1N |
| < 800 | O=C(NCc1cc(C2CC2)n[nH]1)Nc1nc2c(s1)-c1c(cnn1-c1ccccc1C(F)(F)F)C2 |
| < 800 | Nc1nnc(CNC(=O)Nc2nc3c(s2)-c2c(cnn2-c2ccccc2C(F)(F)F)C3)[nH]1 |
| < 800 | Cc1ccc(CN2CC(NC(=O)Nc3nc4c(s3)-c3c(cnn3-c3ccccc3Cl)C4)CC2=O)cc1 (stereo not given) |
| < 800 | O=C(NCc1cccs1)Nc1nc2c(s1)-c1c(cnn1-c1ccccc1C(F)(F)F)C2 |
| < 800 | COc1ccccc1C1CCN(C(=O)Nc2nc3c(s2)-c2c(cnn2-c2ccccc2Cl)C3)C1 (stereo not given) |
| < 800 | CC(C)(NC(=O)Nc1nc2c(s1)-c1c(cnn1-c1ccccc1Cl)C2)C1Nc2ccccc2NC1=O (stereo not given) |
| < 800 | CC(C)c1cnc(CCNC(=O)Nc2nc3c(s2)-c2c(cnn2-c2ccccc2C(F)(F)F)C3)o1 |
| < 800 | O=C(Nc1nc2c(s1)-c1c(cnn1-c1ccccc1Cl)C2)N1CCCC(c2nc3ccccc3[nH]2)C1 (stereo not given) |
| < 800 | CC(C)(C)OC(=O)CCNC(=O)Nc1nc2c(s1)-c1c(cnn1-c1cc(Cl)ccc1Cl)C2 |

| IC50 [nM] | SMILES |
| --- | --- |
| < 800 | CC(C)c1noc(CCNC(=O)Nc2nc3c(s2)-c2c(cnn2-c2ccccc2Cl)C3)n1 |
| < 800 | CC(C)(C)OC(=O)CCNC(=O)Nc1nc2c(s1)-c1c(cnn1-c1ccccc1Cl)C2 |
| < 800 | O=C1Cc2ccccc2CN1CC1CCN(C(=O)Nc2nc3c(s2)-c2c(cnn2-c2ccccc2Cl)C3)C1 (stereo not given) |
| < 800 | O=C(Nc1nc2c(s1)-c1c(cnn1-c1ccccc1Cl)C2)N1CCCCC1c1nc2ccccc2[nH]1 (stereo not given) |
| < 800 | CN(C)CCNC(=O)Nc1nc2c(s1)-c1c(cnn1-c1ccccc1C(F)(F)F)C2 |
| < 800 | Nc1cc(CCNC(=O)Nc2nc3c(s2)-c2c(cnn2-c2ccccc2C(F)(F)F)C3)nn1C1CCCCC1 |
| < 800 | O=C(NCc1ccn[nH]1)Nc1nc2c(s1)-c1c(cnn1-c1ccccc1C(F)(F)F)C2 |
| < 800 | CC(C)(CCn1c(=O)[nH]c2ccccc21)NC(=O)Nc1nc2c(s1)-c1c(cnn1-c1ccccc1C(F)(F)F)C2 |
| < 800 | O=C(C[C@H]1CCCN1C(=O)OCc1ccccc1)Nc1nc2c(s1)-c1c(cnn1-c1ccccc1Cl)C2 |
| < 800 | CC(=O)NCC1CCCN(C(=O)Nc2nc3c(s2)-c2c(cnn2-c2ccccc2Cl)C3)C1 (stereo not given) |
| < 800 | CC(C)(C)c1cc(N)n(CCNC(=O)Nc2nc3c(s2)-c2c(cnn2-c2ccccc2C(F)(F)F)C3)n1 |
| < 800 | Cn1cccc1CCNC(=O)Nc1nc2c(s1)-c1c(cnn1-c1ccccc1Cl)C2 |
| < 800 | CC1CC(c2ccc(O)cc2)CN1C(=O)Nc1nc2c(s1)-c1c(cnn1-c1ccccc1Cl)C2 (stereo not given) |
| < 800 | Cn1nc(CNC(=O)Nc2nc3c(s2)-c2c(cnn2-c2ccccc2C(F)(F)F)C3)cc1N |
| < 800 | CC(=O)NC1CCN(C(=O)Nc2nc3c(s2)-c2c(cnn2-c2ccccc2Cl)C3)C1 (stereo not given) |
| < 800 | CC(C)(C)OC(=O)NCC1CCCN1C(=O)Nc1nc2c(s1)-c1c(cnn1-c1ccccc1Cl)C2 (stereo not given) |
| < 800 | O=C(NCc1ccco1)Nc1nc2c(s1)-c1c(cnn1-c1ccccc1C(F)(F)F)C2 |
| < 800 | O=C(NCc1cc(C2CC2)n[nH]1)Nc1nc2c(s1)-c1c(cnn1-c1cccc(F)c1C(F)(F)F)C2 |
| < 800 | CC(C)(C)OC(=O)NC1CCN(C(=O)Nc2nc3c(s2)-c2c(cnn2-c2ccccc2Cl)C3)C1 (stereo not given) |
| < 800 | CC(C)NC(=O)Nc1nc2c(s1)-c1c(cnn1-c1ccccc1Br)C2 |
| < 800 | CCCNC(=O)Nc1nc2c(s1)-c1c(cnn1-c1cc(F)ccc1C(F)(F)F)C2 |
